Patent publication US8609610B2, “Inhibitors of the trypsin-like site of the proteasome and methods of use thereof” (Trustees of Dartmouth College, priority 2011, dated 2013)
“Also recorded” adds a separate entry of the source.

Experiments:
β2 and β2i sites = test: MV-151 label-competition in extracts of RPMI-8226 MM cells; type: biochemical; conditions: extracts of RPMI-8226 cells, MV-151 probe
Excerpt: Multiple myeloma cells express constitutive proteasomes and immunoproteasomes, and substrates used for the measurement of activity were cleaved by both. To determine whether there were any differences in inhibition of constitutive proteasomes or immunoproteasomes by NC-002, NC-012, and NC-022, the fluorescent activity-based probe MV-151 (Verdoes, et al. (2006) Chem. Biol. 13:1217-1226) was used in a label-competition experiment. Extracts of RPMI-8226 MM cells (which express more immunoproteasomes than NCI-H929 cells) were treated first with the NC inhibitors and then with the MV-151 probe. This was followed by fractionation on SDS-PAGE to separate proteasome subunits and imaging to reveal those subunits labeled by the probe (i.e., unmodified by the inhibitors).

[1] = molecular target: T1, trypsin-like sites (β2) of proteasome in MM cells (Homo sapiens, UniProt Q99436); test: PROTEASOMEGLO assay of proteasome inhibition in MM cells; type: cell-based; conditions: NCI-H929 cells treated overnight
T1 construct: endogenous in cells; host or cells: NCI-H929, RPMI-8226 and other MM cell lines
T1 sequence (Q99436 44-277): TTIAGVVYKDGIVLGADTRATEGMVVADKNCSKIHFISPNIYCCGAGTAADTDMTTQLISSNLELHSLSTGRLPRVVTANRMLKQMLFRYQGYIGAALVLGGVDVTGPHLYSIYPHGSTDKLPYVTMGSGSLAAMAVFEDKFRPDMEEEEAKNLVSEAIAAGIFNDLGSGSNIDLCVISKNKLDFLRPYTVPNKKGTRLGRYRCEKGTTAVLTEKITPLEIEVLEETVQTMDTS
Description: Proteasome inhibition in MM cells was measured with luminogenic substrates using PROTEASOMEGLO assay (Promega). […] An aliquot of culture was pelleted and medium was removed and replaced with PBS. The resulting cell suspension was mixed with luminogenic substrates in the manufacturer-provided lysis/assay buffer. After 3 minutes mixing on an orbital shaker, the plate was incubated in the dark for additional 17 minutes, followed by the measurements of the luminescence, performed in triplicate for each substrate/data point. Data were analyzed as for purified proteasomes. […] Cells (1×10^6 per well of a 6-well plate) were incubated with the inhibitors for 4 hours at 37° C. and this was followed by a 2 hour incubation with 5 μM BODIPY-TMR-epoxomicin. Subsequently, the medium was removed and the cells were washed with PBS and harvested. […] The supernatant was collected and the protein concentration was determined by the Bradford assay, and used to normalize gel loading. The samples were analysed by SDS-PAGE and fluorescent densitometry as described for competition experiment in cell lysates. IC50 values were calculated from three independent experiments using […] PRISM software.

[2] = molecular target: T2, trypsin-like site of 26S proteasomes (Oryctolagus cuniculus, UniProt G1SWK8); test: Inhibition of purified 26S proteasomes, substrate Ac-RLR-amc; type: biochemical, rabbit; conditions: 26S proteasomes from rabbit muscles
T2 construct: IC50 for sites in 26S proteasomes: Tr-L; other: purified 26S proteasomes; other: 26S proteasomes from rabbit muscles
T2 sequence (G1SWK8 1-271): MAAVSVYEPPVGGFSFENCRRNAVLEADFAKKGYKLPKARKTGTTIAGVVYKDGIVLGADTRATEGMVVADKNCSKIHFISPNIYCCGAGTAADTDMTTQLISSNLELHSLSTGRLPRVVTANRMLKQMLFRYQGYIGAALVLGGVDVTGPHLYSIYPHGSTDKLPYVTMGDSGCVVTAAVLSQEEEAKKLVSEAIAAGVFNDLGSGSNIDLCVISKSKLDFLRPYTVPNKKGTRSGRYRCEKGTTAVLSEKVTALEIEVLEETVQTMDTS

CC(=O)N[C@@H](CCCNC(=N)N)C(=O)N[C@@H](CC(C)C)C(=O)N[C@@H](CCCNC(=N)N)C(=O)[C@@]1(C)CO1 [NC-012, Ac-Arg-Leu-Arg-ek]
inhibition of constitutive (β2) versus immunoproteasome (β2i) trypsin-like sites (β2 and β2i sites): equipotent inhibitors of the trypsin-like sites of constitutive and immunoproteasomes | inhibition of trypsin-like activity in live cells [1]: much higher concentrations | proteasome inhibitory potential on purified 26S proteasomes [2]: potent and specific inhibitors of the trypsin-like sites; also recorded: most potent and specific in the series
